In patent publication US10285986B2, “Compounds and anti-tumor NQO1 substrates” (The Board of Trustees of the University of Illinois, priority 2011, dated 2019):

Experiments:
[1] = Stability during incubation in plasma, whole blood and liver microsomes; type: in vitro ADME; details: rat, dog, and human
Protocol: Absorption Systems measured the stability of 4-31 during incubation in rat, dog, and human plasma, whole blood, and liver microsomes. […] This is in strong contrast top-lap, which has been reported to be completely degraded within about 30 min in whole blood.

[2] = tested on: DNA single strand damage, base lesions and double strand breaks; test: DNA damage in vitro (alkaline comet assays, nuclear staining of DSB markers); type: cell-based; details: data not shown
[3] = pKa, log P and log D of 4-31 measured by Absorption Systems; type: physicochemical
Description: A sample of compound 4-31 was delivered to Absorption Systems, a company that specializes in preclinical formulation and stability studies. […] They measured a few physical properties of 4-31, including pKa, log P and log D. Through potentiometric titrations they measured the pKa of 4-31 to be 8.0.

[4] = tested on: PAR-PARP1; test: PARP1 hyperactivation (PAR-PARP1 formation) in vivo in orthotopic Lewis Lung Carcinoma model, immunoblotting; set-up: species or system NOD/SCID mice; details: iv at or near MTD
Protocol: Antibodies that specifically detect poly(ADP-ribosyl)ated α-PAR (BD Pharmingen, San Jose, Calif.) proteins (e.g., the most abundant species, poly(ADP-ribosyl)ated PARP1, PAR-PARP1) and α-PARP1 (sc-8007, Santa Cruz Biotechnology) antibodies were used at 1:4000 and 1:2000 dilutions, respectively. α-Tubulin was monitored for loading.
To generate a known control to monitor the formation of poly(ADP-ribose)ylated-polymerase 1 (PAR-PARP1) in cells, LLC tumor cells were treated in vitro with hydrogen peroxide (H2O2, 0.5 μM) for 15 minutes, and whole cell protein lysates were separated by SDS-PAGE using the α-PAR (BD Pharmingen, San Jose, Calif.) antibody described above. PAR-PARP1 formation was then assessed by immunoblot analyses as previously described in Huang et al., Cancer Research, 2012.
LLC cells (1.0×10^6) were intravenously (iv) injected into the tail veins of female 18-20 gram NOD/SCID mice. Establishment of tumor nodules in the lungs of exposed mice were confirmed by bioluminescence and mice (5/group) were treated intravenously (via tail vein injection) with: (i) hydroxypropyl-beta-cyclodextrin (HPRCD) vehicle alone; (ii) DNQ (7.5 mg/kg); (ii) DNQ-87 (14 mg/kg); (iii) DNQ-107 (10 mg/kg); or (vi) DNQ 9-251 (20 mg/kg) dissolved in HPRCD. At specific times indicated (in mins) after injection of vehicle or drug, mice were euthanized, lungs removed and tumor nodules harvested. […] Extracts from cells treated with H2O2 were used as controls for monitoring PAR-PARP1 formation in LLC tumor cells.

[5] = tested on: healthy mice; test: in vivo; details: mouse
Description: Because of the difficulty of repeated tail vein injections in mice, our group is using IP administration of compound.
All of these derivatives are currently being assessed for their maximum tolerated dose (MTD) in healthy mice. Compounds are formulated in HPβCD and delivered by IP injection to two mice once daily for five days.

[6] = tested on: A549 NSCLC cells; test: A549 subcutaneous xenograft model in nude mice, with or without ionizing radiation; type: in vivo, Athymic nude mice; details: 5 mg/kg by tail vein on days 1, 3, 5, 7, 9, with or without 2 grays radiation; preliminary
Protocol: We are actively experimenting with DNQ in mouse models of cancer. The Boothman lab has completed a pilot study of DNQ in an A549 subcutaneous xenograft model in nude mice (Blanco et al., Cancer Res. 2010, 70, 3896). […] Athymic nude mice were inoculated with A549 NSCLC cells and established tumors were allowed to grow to ˜200 mm^3. Mice were assigned to one of six treatment groups—four mice per group. […] The doses of DNQ were chosen based on the observation that 10 mg/kg DNQ elicited adverse reactions in mice. The other three groups received the same DNQ regimen and also received 2 grays of ionizing radiation on each treatment day. Tumor volumes were measured over the subsequent weeks (FIG. 3).

[7] = tested on: NQO1+ cells; test: NQO1-dependent lethality to cancer cells in vitro; type: cell-based
Description: NQO1 or PARP-1 knockdown spared the short-term lethality of DNQ-treated NQO1+ cells. BAPTA-AM (cytosolic Ca^2+ chelator) and catalase (enzymatic H2O2 scavenger) rescued DNQ-induced lethality by long-term survival assessments.

Row | Structure (SMILES) | stability in liver microsomes ([1]; 1 hour) | stability in plasma or whole blood ([1]; 2 hours) | DNA single strand damage and base lesions ([2]; alkaline comet assays) | delay of DNA double strand break formation after initial DNA SSBs and base lesions [2] [min] | logP ([3]; octanol/0.15 M KCl, unionized compound) | logD ([3]; pH 3.0, octanol/0.15 M KCl) | logD ([3]; pH 4.0, octanol/0.15 M KCl) | logD ([3]; pH 6.8, octanol/0.15 M KCl) | logD ([3]; pH 7.0, octanol/0.15 M KCl) | logD ([3]; pH 8.0, octanol/0.15 M KCl) | logD ([3]; pH 9.0, octanol/0.15 M KCl) | pKa ([3]; potentiometric titrations, N—H) | PAR-PARP1 formation in tumor tissue [4] | dose that elicited adverse reactions in mice [5] [mg/kg] | phenotype in mice at the MTD ([5]; ip) | rate of tumor growth [6] | LD90 ([7]; 2 hour exposure of NQO1+ cells) [nM] | potency compared to β-lapachone ([7]; cancer cell types, NQO1-dependent)
1 | Cc1cc(=O)[nH]c2c1C(=O)c1c(C)cc(=O)n(CC(C)C)c1C2=O [Compound 87] | no sign of degradation | no sign of degradation | extensive initial DNA single strand damage and base lesions | 15 to 30 | 1.8 | 1.78 | 1.78 | 1.76 | 1.75 | 1.49 | 0.76 | 8 | higher levels of PAR-PARP1 formation | – | – | – | – | –
2 | Cc1cc(=O)[nH]c2c1C(=O)c1c(C)cc(=O)n(C)c1C2=O [DNQ, Deoxynyboquinone, reference compound] | – | – | – | – | – | – | – | – | – | – | – | – | formation of PAR-PARP1 | 10 | lethargic and unresponsive to touch | slower the rate of tumor growth relative to control | 50 to 250 | 20- to 100 fold
